Experimental data as given in ChEMBL document CHEMBL5390290, “Discovery of Anti-SARS-CoV-2 Nsp9 Binders from Natural Products by a Native Mass Spectrometry Approach” (J Nat Prod, 2023).
pKd: −log10 of the molar value. Activity calls are given as the source filed them. The rule behind the calls is not given here.

Assays:
[1] = molecular target: Replicase polyprotein 1ab (Severe acute respiratory syndrome coronavirus 2) (UniProt P0DTD1); test: Binding affinity to recombinant SARS-CoV-2 Nsp9 at 10 uM by Mass spectrometry analysis relative to control
[2] = molecular target: Replicase polyprotein 1ab (Severe acute respiratory syndrome coronavirus 2) (UniProt P0DTD1); test: Binding affinity to recombinant SARS-CoV-2 Nsp9 at 50 uM by Mass spectrometry analysis relative to control
[3] = molecular target: Replicase polyprotein 1ab (Severe acute respiratory syndrome coronavirus 2) (UniProt P0DTD1); test: Binding affinity to recombinant SARS-CoV-2 Nsp9 at 10 to 50 uM by Mass spectrometry analysis; conditions: dose 10-50 µM
[4] = molecular target: Replicase polyprotein 1ab (Severe acute respiratory syndrome coronavirus 2) (UniProt P0DTD1); test: Binding affinity to SARS-CoV-2 Nsp9 at 25 uM by LC-MS/MS analysis relative to control
[5] = molecular target: Replicase polyprotein 1ab (Severe acute respiratory syndrome coronavirus 2) (UniProt P0DTD1); test: Binding affinity to recombinant SARS-CoV-2 Nsp9 at 50 uM by Mass spectrometry analysis
[6] = molecular target: Replicase polyprotein 1ab (Severe acute respiratory syndrome coronavirus 2, UniProt P0DTD1); test: Binding affinity to recombinant SARS-CoV-2 Nsp9 assessed as dissociation constant by Mass spectrometry analysis

| Structure (SMILES) | Activity [1] | Activity [2] | Activity [3] | further results |
| --- | --- | --- | --- | --- |
| C=C1C(=O)[C@]23[C@H](O)[C@@H]1CC[C@H]2[C@@]12C(O)[C@@]3(O)C(=O)[C@@H]1C(C)(C)CC[C@@H]2O (stereo partly drawn) | 0.05% | 0.38% |  |  |
| C=C1C[C@]23C4C5N(C)C[C@]6(C)C[C@H](O)C[C@@]5([C@@H]2[C@H](OC(=O)/C(C)=C/CO)[C@H](OC(=O)/C(C)=C/C)[C@H]14)[C@]6(O)[C@@H](O)[C@@H]3O (stereo partly drawn) |  |  | inactive |  |
| C=C1C(=O)[C@]23[C@H](O)[C@@H]1CC[C@H]2[C@@]12CO[C@@]3(O)[C@@H](O)[C@@H]1C(C)(C)CC[C@@H]2O | 0.71% | 1% |  | Activity [4]: Active |
| C=C1[C@@H]2C[C@@]3([C@@H]1O)[C@@H](CC2=O)[C@@]12[C@@H]4[C@@H]3C[C@@H]1[C@@](C)(CC[C@@H]2O)CN4CC |  |  | inactive |  |
| C=C1C[C@]23C[C@@]1(O)CC[C@H]2[C@@]12C=C[C@H](O)[C@](C)(C(=O)O1)[C@H]2[C@@H]3C(=O)O |  |  |  | Activity [5]: Active |
| C=C1C(=O)[C@]23[C@H](O)[C@@H]1[C@@H](O)C[C@H]2[C@]12CCCC(C)(C)[C@H]1[C@H](O)[C@@]3(O)OC2 | 0% | 0% | inactive |  |
| C=C1[C@H]2CC[C@H]3[C@@]45CO[C@](O)([C@@H](O)[C@@H]4C(C)(C)CC[C@@H]5O)[C@@]3([C@@H]1O)[C@@H]2O | 2% | 16% |  |  |
| C=C1C[C@]23C4C5N(C)C[C@]6(C)C[C@H](O)C[C@@]5([C@@H]2[C@H](OC(=O)c2ccc(O)cc2)[C@H](OC(=O)/C(C)=C/C)[C@H]14)[C@]6(O)[C@@H](O)[C@@H]3O (stereo partly drawn) |  |  | inactive |  |
| C=C1C(=O)[C@]23[C@H](O)[C@@H]1C[C@@H](O)[C@H]2[C@]12CCCC(C)(C)[C@H]1[C@H](O)[C@@]3(O)OC2 | 0.15% | 0.89% |  |  |
| C=C1C[C@]23C4C5N(C)C[C@]6(C)C[C@H](O)C[C@@]5([C@@H]2[C@H](OC(=O)/C(C)=C/C)[C@H](OC(=O)/C(C)=C/C)[C@H]14)[C@]6(O)[C@@H](O)[C@@H]3O (stereo partly drawn) |  |  | inactive |  |
| CC(C)[C@]1(O)C(OC(=O)c2ccc[nH]2)[C@@]2(O)[C@@]3(C)C[C@]4(O)O[C@@]5([C@H](O)[C@@H](C)CC[C@]35O)[C@@]2(O)[C@@]14C (stereo partly drawn) |  |  |  | Activity [4]: Active; pKd [6]: 4.32 |
| C=C1C(=O)[C@]23[C@@H](O)[C@H]1CC[C@H]2[C@@]12COC3(O)C[C@@H]1C(C)(C)CC[C@@H]2O | 0% | 0.04% |  |  |
| C=C1C(=O)[C@@]23[C@H]4O[C@H]5O[C@]2(O)[C@@H](O)[C@@H]2C(C)(C)CC[C@H](O)[C@]52[C@@H]3CC[C@H]14 | 0.27% | 1% |  |  |
